# From patent publication US20060234960A1, “Methods and compositions for increasing the safety and efficacy of albumin-binding drugs” (priority 2005, published 2006)
# Legend:
# [1] = whole human blood; cited from earlier work
# brain cancer = conditions: cited from earlier work
# [2] = murine vs human blood; cited from earlier work
# human serum albumin [3] = biological target: T1, human serum albumin (Homo sapiens, UniProt P02768)
# Description: Salus™ Drug Combinatorial Agents were identified using the CADEX knowledge base.
# [4] = system: human MRC-5 lung fibroblast cell line; experiment: IC50 in human MRC-5 lung fibroblast cell line (in vitro toxicity); format: cell-based; conditions: best case scenario
# Description: Therapeutic index is defined as the ratio of the median lethal dose (LD50) to the median effective dose (ED50). […] While animal tests are at best only about 65 percent predictive of human acute toxicity, a combination of four cell tests can determine of a substance is dangerous to humans with better than 80 percent precision.
# (§1) We have decided to use the human MRC-5 lung fibroblast cell line to test IC50 of 10-hydroxycamptothecin (10-HC) in the absence and presence of Salus™ 301. The ED50 values were determined with human MDA-MB-435S breast carcinoma cell line.
# [5] = system: human MDA-MB-435S breast carcinoma cell line; experiment: Cytotoxicity for breast cancer cells (MDA-MB-435S), XTT; format: cell-based; conditions: for ability to kill breast cancer cells in the presence of Salus (301): FIGS. 9-13, with vs without Salus agent
# Procedure: To further validate the concept in vitro studies using human breast cell carcinoma line and clinically approved blood concentrations of both clofibrate (301) and 10-hydroxycamptothecin were performed. FIG. 9 graphs the results GI 50 below. […] Additionally at clinically approved concentrations of both drugs in the presence of blood concentrations of human serum albumin, without Salus, approximately 33% of the cells were surviving at the end of the test vs. approximately 2%.
# as §1
# Cytotoxicity of DRUG for Breast Cancer Cells (MDA-MB-435S)
# • 1. Count number of cells in flask. The final concentration of cells in each well should be between 5000-40000 cells/well (100,000-800,000 cells/ml). Dilute cells to proper concentration using Leibovitz's L-15 supplemented with 10% FBS and 0.1% insulin. Add 100 μl of cells into the microplate using repeating pipette. Be sure to vortex tube before adding to plate. Allow plate to incubate for 24 hours at 37° C. (Note: wells A1-H1, A1-H11 will contain only medium for evaporation purposes. Well A2 will contain no cells, only medium and will be used in experiment.) • Medium: Leibovitz's L-15 medium. • 2. Albumin: • Make 60 mg/ml in HSA (900 mg HSA+13.3 ml medium). Use Sigma HSA A-8763 • Make 5 ml of 60 mg/ml HSA with 2 mM 301 (2.33 mg 301 for 5.4 ml HSA). • Make 1 ml of 2 mM 301 in medium (0.53 mg in 1.23 ml medium). Dilute 200 μl in 200 μl medium to make 1 mM 301. • Make DRUG stock in DMSO Stock molarity=1000× conc. of highest test sample (ex. if 2 μM is needed, then stock needs to be 2 mM.) This will vary with each drug based on dosage of drug. For Cancer Cells, the highest concentration should be 1-2 times greater than the dosage for the drug. • 3. Make the test concentrations in advance of testing (5-24 hours prior to testing): The test concentrations will be made at double the concentration, 100 μl will be added into the 100 μl of the cells, making the final concentrations the same as those shown on the microplate chart. Change medium in plate (using the L-15 supplemented with 10% FBS and 0.1% insulin prior to loading test concentrations. • 100% cells: 100 μl of medium • medium: 100 μl of medium • 0.5 mM 301: add 100 μl of 1 mM 301 made in medium • 0.5 mM 301 with HSA: add 100 μl of 1 mM 301 with 30 mg/ml HSA • 1 mM 301: add 100 μl of 2 mM 301 made in medium • 1 mM 301 with HSA: add 100 μl of 2 mM 301 with 30 mg/ml HSA • 30 mg/ml HSA: add 100 μl of 60 mg/ml HSA made in medium (2 wells) • Dosage of DRUG: make a 1:500 dilution, using medium as the diluent. Make 2-fold serial dilutions into 300 μl of medium (600 μl total volume). Be sure to make dilutions before adding into wells. • 30×HSA & Dosage DRUG: Follow same serial dilution procedure as above with the DRUG, but the diluent should be medium +60 mg/ml HSA • 30×HSA, 0.5 mM 301 & DRUG: Follow same serial dilution procedure as above with the DRUG, but the diluent should be medium +60 mg/ml HSA with 1 mM 301 • 30×HSA, 1 mM 301 & 2 μM DRUG: Follow same serial dilution procedure as above with the DRUG, but the diluent should be medium +60 mg/ml HSA with 2 mM 301. • Allow these to incubate at 37° C. overnight. After the microplate has been incubating for 24 hours, add the above test concentrations into the appropriate well (see Chart for microplate information). Allow plate to incubate an additional 48 hours. After 48 Hours: • 4. Under sterile hood, reconstitute the XTT vial with 5 ml of medium. • 5. Remove all liquid from wells. Wash with medium, remove, then fill wells with 200 μl of fresh medium. • 6. Add 40 μl of XTT to all wells. • 7. Allow wells to incubate 2 hours. • 8. Read the plate in the microplate reader using a 655 nm reading as a reference wavelength. The read at 450 nm. Subtract the 655 nm reading from the 450 reading. […]
# human serum albumin [6] = biological target: T1, human serum albumin; experiment: X-ray structure of human serum albumin complexes (binding site); conditions: X-ray crystallography
# [7] = system: human cancer xenografts lines; conditions: immunodeficient (nude) mice; cited from earlier work
# human serum albumin [8] = biological target: T1, human serum albumin; conditions: carboxylate vs lactone form; cited from earlier work
# human serum albumin [9] = biological target: T1, human serum albumin; conditions: Topotecan alone, comparison for Camptothecin with Salus agent; cited from earlier work
# T1 sequence (P02768 25-609): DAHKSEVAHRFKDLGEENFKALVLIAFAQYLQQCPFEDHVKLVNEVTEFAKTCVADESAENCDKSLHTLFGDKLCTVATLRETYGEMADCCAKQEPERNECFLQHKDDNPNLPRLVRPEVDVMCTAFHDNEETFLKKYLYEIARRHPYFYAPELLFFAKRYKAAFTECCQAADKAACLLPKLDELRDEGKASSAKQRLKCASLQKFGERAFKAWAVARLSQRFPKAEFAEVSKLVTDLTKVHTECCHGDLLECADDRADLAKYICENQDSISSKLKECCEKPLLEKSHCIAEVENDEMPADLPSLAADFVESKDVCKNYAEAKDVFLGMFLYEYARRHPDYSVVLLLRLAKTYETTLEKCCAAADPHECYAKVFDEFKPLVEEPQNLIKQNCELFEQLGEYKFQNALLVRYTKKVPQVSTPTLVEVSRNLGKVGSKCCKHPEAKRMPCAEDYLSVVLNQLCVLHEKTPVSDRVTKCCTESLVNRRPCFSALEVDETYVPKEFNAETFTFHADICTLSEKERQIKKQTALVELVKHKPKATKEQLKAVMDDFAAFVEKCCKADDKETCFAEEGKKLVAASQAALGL
smiles,measurement,setting,value
CC[C@@]1(O)C(=O)OCc2c1cc1n(c2=O)Cc2cc3c(N)cccc3nc2-1 [9-aminocamptothecin],drug remaining in the lactone form at equilibrium,[1],0.5%
same,efficacy of therapy,"brain cancer; 99 brain cancer patients, intravenous",grossly ineffective
same,drug in the carboxylate form,"brain cancer; patients treated intravenously, stated as likelihood",99.5%
same,lactone levels in murine blood relative to human blood,[2],approximately 100 fold
CC[C@@]1(O)C(=O)OCc2c1cc1n(c2=O)Cc2cc3c([N+](=O)[O-])cccc3nc2-1 [9-nitro-Camptothecin],increase of active lactone form with the selected Salus agent,human serum albumin [3],Equally dramatic results
"CC[C@@]1(O)C(=O)OCc2c1cc1n(c2=O)Cc2cc3cc(O)ccc3nc2-1 [10-HC, 10-hydroxycamptothecin]",increase of active lactone form with the selected Salus agent,human serum albumin [3],Equally dramatic results
same,IC50,[4]; with 0.5 mM 301,6 µM
same,IC50,[4]; with 1.0 mM 301,3.3 µM
same,IC50,[4]; without 301,6.78 µM
same,ability to kill breast cancer cells in the presence of Salus (301),[5],improvement
same,cells surviving at the end of the test,"[5]; with Salus (clofibrate, 301), clinically approved concentrations of both drugs, blood concentrations of human serum albumin",approximately 2%
same,improvement in the GI 50 values,"[5]; with clofibrate (301) vs without, blood concentrations of human serum albumin",approximately 16 fold
same,cells surviving at the end of the test,"[5]; without Salus, clinically approved concentration, blood concentrations of human serum albumin",approximately 33%
CC[C@@]1(O)C(=O)OCc2c1cc1n(c2=O)Cc2cc3ccccc3nc2-1 [Camptothecin],drug remaining in the lactone form at equilibrium,[1],5.3%
same,binding location on human serum albumin,human serum albumin [6],distinct pocket within IB subdomain
same,number of human cancer xenografts lines in which effective,[7],more than 13
same,enhancement in affinity for HSA of carboxylate form over lactone form,human serum albumin [8],150 fold
COc1cccc2c1C(=O)c1c(O)c3c(c(O)c1C2=O)C[C@@](O)(C(=O)CO)C[C@@H]3O[C@H]1C[C@H](N)[C@H](O)[C@H](C)O1 [Doxorubicin],ability to kill breast cancer cells in the presence of Salus (301),[5],improvement
COc1cccc2c1C(=O)c1c(O)c3c(c(O)c1C2=O)C[C@@](O)(C(=O)CO)C[C@@H]3O[C@H]1C[C@H](N)[C@@H](O)[C@H](C)O1 [Epirubicin],ability to kill breast cancer cells in the presence of Salus (301),[5],improvement
CCc1c2c(nc3ccc(O)cc13)-c1cc3c(c(=O)n1C2)COC(=O)[C@]3(O)CC [SN-38],drug remaining in the lactone form at equilibrium,[1],19.5%
COc1cc([C@@H]2c3cc4c(cc3[C@@H](O[C@@H]3O[C@@H]5CO[C@@H](c6cccs6)O[C@H]5[C@H](O)[C@H]3O)[C@H]3COC(=O)[C@H]23)OCO4)cc(OC)c1O [Teniposide],ability to kill breast cancer cells in the presence of Salus (301),[5],improvement
CC[C@@]1(O)C(=O)OCc2c1cc1n(c2=O)Cc2cc3c(CN(C)C)c(O)ccc3nc2-1 [Topotecan],drug remaining in the lactone form at equilibrium,[1],11.9%
same,level of active lactone form (comparison value),human serum albumin [9],12%
same,ability to kill breast cancer cells in the presence of Salus (301),[5],improvement
